For 2 compounds, Ratio and MIC results are on record in ChEMBL document CHEMBL4138081, “Recent developments of coumarin-containing derivatives and their anti-tubercular activity” (Eur J Med Chem, 2017).

Usually MIC stands for the smallest concentration in the dilution series that meets the test's criterion for growth inhibition. The low end stands for greater potency, the high end for weaker potency.

≈ marks a conversion by molar mass, not a printed value.

The nature of experiment [1]: Resistant index, ratio of MIC for INH resistant Mycobacterium tuberculosis to MIC for Mycobacterium tuberculosis H37Rv. It is filed as functional.
In experiment [2] the test system is Mycobacterium tuberculosis. As to the kind of experiment: Antimycobacterial activity against INH resistant Mycobacterium tuberculosis after 72 hrs by alamar blue dye-based broth dilution assay. It is filed as functional. In general terms: Resazurin is reduced to fluorescent resorufin, in cell work by metabolically active cells.

For the compound `O=c1oc2ccccc2cc1C(c1cccs1)c1c(O)c2ccccc2oc1=O` (centres undefined), in experiment [1], the Ratio came to 1.6. The compound also yielded a minimal inhibitory concentration (MIC) in experiment [2] of 8.34 µM (≈ 3.36 µg/mL).

In the case of `Cc1cc2oc(=O)c(C(c3cccs3)c3c(O)c4cc(C)c(C)cc4oc3=O)c(C)c2cc1C` (centres undefined), the Ratio in experiment [1] worked out at 1.6. The compound also gave a minimum inhibitory concentration (MIC) in experiment [2] of 8.34 µM (≈ 3.94 µg/mL).
